Experimental data: ChEMBL document CHEMBL4304741, “Modification and Biological Evaluation of a Series of 1,5-Diaryl-1,2,4-triazole Compounds as Novel Agents against Pancreatic Cancer Metastasis through Targeting Myoferlin” (J Med Chem, 2019)
Calls of active or inactive are those of the source. The calls are words filed in the database; no cut-off is given here.

Key:
PANC-1 [1] = assay: Effect on Twist1 expression in human PANC1 cells up to 400 nM by Western blot analysis; assay type: functional, cell-based
Myoferlin [2] = target: T1, Myoferlin (Homo sapiens, UniProt Q9NZM1); assay: Inhibition of MYOF in human PANC1 cells assessed as reversal of epithelial-mesenchymal transition by measuring up regulation of E-cadherin expression up to 400 nM by Western blot analysis; assay type: cell-based
T1 sequence (Q9NZM1 whole entry): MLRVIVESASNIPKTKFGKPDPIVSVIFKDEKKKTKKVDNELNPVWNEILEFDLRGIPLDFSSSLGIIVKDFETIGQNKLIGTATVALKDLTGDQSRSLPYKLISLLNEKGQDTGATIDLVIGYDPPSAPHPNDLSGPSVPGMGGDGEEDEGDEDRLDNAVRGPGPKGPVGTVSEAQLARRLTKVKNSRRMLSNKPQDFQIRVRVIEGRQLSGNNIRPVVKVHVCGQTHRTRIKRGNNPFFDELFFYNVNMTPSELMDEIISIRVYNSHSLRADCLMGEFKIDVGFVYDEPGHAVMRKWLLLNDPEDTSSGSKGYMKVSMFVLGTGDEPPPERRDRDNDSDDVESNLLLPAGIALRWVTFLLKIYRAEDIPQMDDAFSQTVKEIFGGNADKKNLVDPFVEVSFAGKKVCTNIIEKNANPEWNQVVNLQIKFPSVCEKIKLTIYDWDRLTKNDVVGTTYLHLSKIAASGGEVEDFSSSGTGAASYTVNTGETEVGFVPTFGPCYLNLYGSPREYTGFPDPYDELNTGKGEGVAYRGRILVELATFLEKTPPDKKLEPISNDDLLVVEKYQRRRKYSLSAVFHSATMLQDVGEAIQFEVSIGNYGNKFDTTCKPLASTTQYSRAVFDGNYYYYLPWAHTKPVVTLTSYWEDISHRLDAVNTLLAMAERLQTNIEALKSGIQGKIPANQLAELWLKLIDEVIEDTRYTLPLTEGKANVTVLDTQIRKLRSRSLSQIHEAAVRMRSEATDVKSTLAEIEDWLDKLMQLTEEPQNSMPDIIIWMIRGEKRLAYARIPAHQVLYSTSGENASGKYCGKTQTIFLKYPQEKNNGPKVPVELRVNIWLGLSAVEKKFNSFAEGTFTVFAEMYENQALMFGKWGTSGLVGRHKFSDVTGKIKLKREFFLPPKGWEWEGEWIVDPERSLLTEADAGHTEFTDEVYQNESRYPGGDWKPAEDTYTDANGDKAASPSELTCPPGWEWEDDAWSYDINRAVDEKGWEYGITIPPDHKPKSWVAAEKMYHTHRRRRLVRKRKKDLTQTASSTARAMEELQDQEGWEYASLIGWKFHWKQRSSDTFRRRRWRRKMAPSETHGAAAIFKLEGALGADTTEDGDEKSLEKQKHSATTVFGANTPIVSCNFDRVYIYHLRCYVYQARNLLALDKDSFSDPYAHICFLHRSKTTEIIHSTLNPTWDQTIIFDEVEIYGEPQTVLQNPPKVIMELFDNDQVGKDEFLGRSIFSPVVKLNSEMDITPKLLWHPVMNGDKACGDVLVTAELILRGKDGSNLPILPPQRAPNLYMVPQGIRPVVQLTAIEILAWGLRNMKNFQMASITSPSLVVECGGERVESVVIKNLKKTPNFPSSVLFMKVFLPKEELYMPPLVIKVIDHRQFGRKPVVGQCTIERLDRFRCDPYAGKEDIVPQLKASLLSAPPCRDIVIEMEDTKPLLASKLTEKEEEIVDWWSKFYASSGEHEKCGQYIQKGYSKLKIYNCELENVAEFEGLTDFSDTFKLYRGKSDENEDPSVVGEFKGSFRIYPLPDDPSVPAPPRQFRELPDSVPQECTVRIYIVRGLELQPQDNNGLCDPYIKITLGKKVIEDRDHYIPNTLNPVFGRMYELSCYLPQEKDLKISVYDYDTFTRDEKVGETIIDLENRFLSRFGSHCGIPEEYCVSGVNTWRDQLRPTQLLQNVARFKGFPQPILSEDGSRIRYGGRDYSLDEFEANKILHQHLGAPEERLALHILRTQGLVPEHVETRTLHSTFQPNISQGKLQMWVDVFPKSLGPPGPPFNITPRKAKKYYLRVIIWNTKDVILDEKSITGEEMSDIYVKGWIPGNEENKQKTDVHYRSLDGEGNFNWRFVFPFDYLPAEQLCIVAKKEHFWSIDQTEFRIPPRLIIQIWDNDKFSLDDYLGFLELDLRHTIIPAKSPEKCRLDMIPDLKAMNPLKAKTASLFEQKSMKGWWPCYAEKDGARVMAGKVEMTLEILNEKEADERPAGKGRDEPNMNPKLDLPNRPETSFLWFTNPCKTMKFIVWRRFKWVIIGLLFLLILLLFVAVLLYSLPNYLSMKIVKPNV

[3] = Toxicity in Balb/c nude mouse xenografted with PANC1 cells assessed as pathological changes in kidney at 25 to 50 mg/kg/day, ip by H and E staining-based microscopic analysis; assay type: organism-based; conditions: in vivo
PANC-1 [4] = assay: Antimetastatic activity against human PANC1 cells harboring luciferase reporter gene xenografted in Balb/c nude mouse assessed as mouse survival at 25 mg/kg/day, ip (reference value: 25%); assay type: functional; conditions: PANC-1, ip
[5] = Toxicity in Balb/c nude mouse xenografted with PANC1 cells assessed as pathological changes in heart at 25 to 50 mg/kg/day, ip by H and E staining-based microscopic analysis; assay type: organism-based; conditions: in vivo
Cytochrome P450 2C9 = Cytochrome P450 2C9 (Homo sapiens, UniProt P11712); assay: Inhibition of CYP2C9 in human liver microsomes using tolbutamide as substrate preincubated for 5 mins followed by NADPH-generating system addition and measured after 20 mins by LC-MS/MS analysis
Sequence of Cytochrome P450 2C9 (P11712 whole entry): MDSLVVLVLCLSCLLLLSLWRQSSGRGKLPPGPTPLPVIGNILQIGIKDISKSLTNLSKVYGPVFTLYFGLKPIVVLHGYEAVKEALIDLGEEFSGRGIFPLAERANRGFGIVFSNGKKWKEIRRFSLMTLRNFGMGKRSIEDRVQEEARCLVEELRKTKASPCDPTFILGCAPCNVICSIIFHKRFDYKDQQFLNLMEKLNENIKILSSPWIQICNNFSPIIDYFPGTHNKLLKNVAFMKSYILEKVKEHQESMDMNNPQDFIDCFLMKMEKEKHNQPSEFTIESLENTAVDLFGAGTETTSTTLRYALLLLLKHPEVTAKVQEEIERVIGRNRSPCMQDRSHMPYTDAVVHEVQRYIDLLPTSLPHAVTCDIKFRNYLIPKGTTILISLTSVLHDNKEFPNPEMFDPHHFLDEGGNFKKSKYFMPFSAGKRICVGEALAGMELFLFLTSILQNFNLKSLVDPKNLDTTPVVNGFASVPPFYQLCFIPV

PANC-1 [6] = assay: Antimetastatic activity against human PANC1 cells harboring luciferase reporter gene xenografted in Balb/c nude mouse assessed as reduction in lung metastasis burden by measuring reduction in luminescence at 25 mg/kg/day, ip measured every 10 days by bioluminescence imaging analysis relative to control; assay type: functional
Myoferlin [7] = target: T1, Myoferlin; assay: Inhibition of MYOF in human PANC1 cells assessed as reduction in MMP1 secretion measured after 24 hrs by SDS-PAGE analysis; assay type: cell-based
[8] = target: Vascular endothelial growth factor receptor 2 (Homo sapiens) (UniProt P35968); assay: Effect on VEGFR2 phosphorylation in MYOF-knockout human PANC1 cells up to 400 nM by Western blot analysis
Sequence of Vascular endothelial growth factor receptor 2 (Homo sapiens) (P35968 whole entry): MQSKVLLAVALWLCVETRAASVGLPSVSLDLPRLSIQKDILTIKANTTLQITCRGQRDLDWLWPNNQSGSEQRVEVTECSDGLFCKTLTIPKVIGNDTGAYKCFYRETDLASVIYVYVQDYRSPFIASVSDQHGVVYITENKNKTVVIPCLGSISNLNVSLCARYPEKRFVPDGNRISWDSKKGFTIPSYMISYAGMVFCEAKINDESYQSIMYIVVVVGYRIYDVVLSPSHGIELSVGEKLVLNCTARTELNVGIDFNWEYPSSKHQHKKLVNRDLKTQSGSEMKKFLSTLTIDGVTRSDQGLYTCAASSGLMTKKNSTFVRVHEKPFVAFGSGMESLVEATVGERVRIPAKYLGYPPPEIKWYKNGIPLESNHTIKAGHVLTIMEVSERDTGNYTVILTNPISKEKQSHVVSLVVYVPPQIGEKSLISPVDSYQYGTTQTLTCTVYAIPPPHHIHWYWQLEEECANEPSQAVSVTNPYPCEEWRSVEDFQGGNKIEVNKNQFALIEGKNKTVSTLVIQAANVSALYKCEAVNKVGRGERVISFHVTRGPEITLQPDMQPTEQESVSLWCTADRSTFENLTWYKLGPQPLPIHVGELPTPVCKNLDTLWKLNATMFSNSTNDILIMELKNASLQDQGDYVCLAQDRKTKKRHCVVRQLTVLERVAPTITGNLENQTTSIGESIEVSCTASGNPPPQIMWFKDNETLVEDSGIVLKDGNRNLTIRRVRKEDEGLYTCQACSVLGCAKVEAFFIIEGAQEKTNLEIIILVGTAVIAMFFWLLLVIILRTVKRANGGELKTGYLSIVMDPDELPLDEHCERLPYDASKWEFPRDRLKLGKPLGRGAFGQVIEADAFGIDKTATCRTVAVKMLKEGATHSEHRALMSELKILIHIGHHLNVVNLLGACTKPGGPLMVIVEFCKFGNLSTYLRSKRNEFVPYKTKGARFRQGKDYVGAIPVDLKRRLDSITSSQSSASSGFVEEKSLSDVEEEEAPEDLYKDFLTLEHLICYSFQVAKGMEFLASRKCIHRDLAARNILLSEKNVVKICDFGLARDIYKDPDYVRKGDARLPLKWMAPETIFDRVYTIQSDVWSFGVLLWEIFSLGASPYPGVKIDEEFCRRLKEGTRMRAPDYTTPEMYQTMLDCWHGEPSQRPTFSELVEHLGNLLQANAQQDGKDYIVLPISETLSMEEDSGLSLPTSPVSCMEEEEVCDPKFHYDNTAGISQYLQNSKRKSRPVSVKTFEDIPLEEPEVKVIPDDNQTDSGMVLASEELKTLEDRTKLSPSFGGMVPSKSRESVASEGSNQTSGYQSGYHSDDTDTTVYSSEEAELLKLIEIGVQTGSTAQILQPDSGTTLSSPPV

[9] = Toxicity in Balb/c nude mouse xenografted with PANC1 cells assessed as body weight loss at 25 to 50 mg/kg/day, ip; assay type: organism-based; conditions: in vivo
Cytochrome P450 1A2 = target: T2, Cytochrome P450 1A2 (Homo sapiens, UniProt P05177); assay: Inhibition of CYP1A2 in human liver microsomes using phenacetin as substrate preincubated for 5 mins followed by NADPH-generating system addition and measured after 20 mins by LC-MS/MS analysis
T2 sequence (P05177 whole entry): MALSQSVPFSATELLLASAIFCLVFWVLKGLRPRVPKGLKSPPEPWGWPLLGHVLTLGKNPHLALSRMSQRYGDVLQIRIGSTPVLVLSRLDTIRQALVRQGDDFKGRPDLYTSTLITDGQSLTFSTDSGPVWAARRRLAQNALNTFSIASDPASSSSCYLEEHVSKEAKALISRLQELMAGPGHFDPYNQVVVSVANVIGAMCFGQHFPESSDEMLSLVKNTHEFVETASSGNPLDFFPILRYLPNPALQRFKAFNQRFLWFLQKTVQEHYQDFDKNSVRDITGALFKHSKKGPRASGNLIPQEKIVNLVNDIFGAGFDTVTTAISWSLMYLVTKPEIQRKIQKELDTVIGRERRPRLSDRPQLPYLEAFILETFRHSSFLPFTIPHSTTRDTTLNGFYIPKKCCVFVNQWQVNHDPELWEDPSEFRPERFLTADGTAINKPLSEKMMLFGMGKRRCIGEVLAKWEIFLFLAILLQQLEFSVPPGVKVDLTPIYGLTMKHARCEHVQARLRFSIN

PANC-1 [10] = assay: Antimigratory activity against MYOF-knockout human PANC1 cells transfected with pcDNA3.1-MYOF measured after 18 hrs in presence of mitomycin C using crystal violet staining by inverted microscopy-based transwell assay; assay type: functional, cell-based
PANC-1 [11] = assay: Effect on EGFR expression in MYOF-knockout human PANC1 cells up to 400 nM by Western blot analysis; assay type: functional, cell-based
PANC-1 [12] = assay: Effect on E-cadherin expression in MYOF-knockout human PANC1 cells up to 400 nM by Western blot analysis; assay type: functional, cell-based
Myoferlin [13] = target: T1, Myoferlin; assay: Inhibition of MYOF in human PANC1 cells assessed as reversal of epithelial-mesenchymal transition by measuring down regulation of fibronectin expression up to 400 nM by Western blot analysis; assay type: cell-based
PANC-1 [14] = assay: Antimetastatic activity against human PANC1 cells harboring luciferase reporter gene xenografted in Balb/c nude mouse administered intraperitoneally once daily measured every 10 days by bioluminescence imaging analysis; assay type: functional, cell-based
Cytochrome P450 3A4 = Cytochrome P450 3A4 (Homo sapiens, UniProt P08684); assay: Inhibition of CYP3A4 in human liver microsomes using midazolam as substrate preincubated for 5 mins followed by NADPH-generating system addition and measured after 20 mins by LC-MS/MS analysis
Sequence of Cytochrome P450 3A4 (P08684 whole entry): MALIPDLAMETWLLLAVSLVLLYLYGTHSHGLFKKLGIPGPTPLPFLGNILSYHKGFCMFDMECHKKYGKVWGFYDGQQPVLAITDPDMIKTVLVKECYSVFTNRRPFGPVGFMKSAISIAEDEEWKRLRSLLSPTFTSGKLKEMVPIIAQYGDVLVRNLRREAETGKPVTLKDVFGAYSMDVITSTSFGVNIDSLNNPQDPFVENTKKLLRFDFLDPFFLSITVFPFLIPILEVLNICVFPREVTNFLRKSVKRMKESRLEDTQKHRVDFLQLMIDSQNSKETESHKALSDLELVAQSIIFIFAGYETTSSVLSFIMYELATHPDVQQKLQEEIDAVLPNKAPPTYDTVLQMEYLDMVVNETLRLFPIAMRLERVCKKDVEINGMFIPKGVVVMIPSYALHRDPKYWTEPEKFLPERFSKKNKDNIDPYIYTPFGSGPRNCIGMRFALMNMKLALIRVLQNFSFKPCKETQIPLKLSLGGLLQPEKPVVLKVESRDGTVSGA

Myoferlin [15] = target: T1, Myoferlin; assay: Inhibition of MYOF in human PANC1 cells assessed as reduction in phospho-VEGFR2 level by Western blot analysis; assay type: cell-based

With `CCc1nc(-c2ncc(OC)cn2)n(-c2cccc(C(=O)NCCCCc3ccccc3)c2)n1` the Activity (PANC-1 [1]) was “inactive”, the inhibition (Myoferlin [2]) was “Active” and the Activity [3] was “Non-Toxic”. For the same compound, the survival at 25 mg/kg/day (PANC-1 [4]) was 75%, the Activity [5] was “Non-Toxic” and the IC50 (Cytochrome P450 2C9) was 20.5 µM. For the same compound, the “fold change (FC)” value (PANC-1 [6]) was 3, the inhibition (Myoferlin [7]) was “Dose-dependent effect” and the Activity [8] was “inactive”. The Activity [9] was “Non-Toxic”, the IC50 (Cytochrome P450 1A2) was > 50 µM and the Activity (PANC-1 [10]) was “Active”. The Activity (PANC-1 [11]) was “inactive”, the Activity (PANC-1 [12]) was “inactive” and the inhibition (Myoferlin [13]) was “Dose-dependent effect”. The Activity (PANC-1 [14]) was “Dose-dependent effect”, the IC50 (Cytochrome P450 3A4) was > 50 µM and the inhibition (Myoferlin [15]) was “Dose-dependent effect”.
